Assays:
LA-Taq DNA Polymerase = assay: PCR with LA-Taq DNA Polymerase in the presence of cationic complexes (GC-rich region, long chain); format: biochemical; details: for DNA synthesis reaction when amplifying GC-rich region: human ApoE genomic region 441 bp, GC about 74%, 100 ng HT29 genomic DNA, complex 50, 100, 200 or 500 μM, no amplification without addition
Description: The effects on addition of the cationic complex were examined when PCR amplification was carried out with a GC-rich region as a target. As the cationic complex, there was used tris(ethylenediamine)cobalt (III) chloride, or tris(ethylenediamine)rhodium (III) trichloride•trihydrate. Template DNA was prepared from HT29 cells by conventional method. Amplified region and amplified chain lengths were human ApoE genomic region and 441 bp. The GC content of this amplified region was about 74%. As DNA polymerase, TaKaRa LA-Taq DNA Polymerase (manufactured by Takara Shuzo Co., Ltd., hereinafter referred to as “LA-Taq DNA Polymerase”) was used. The composition for a reaction mixture is shown below.
25 μl of 2×GC buffer I (manufactured by Takara Shuzo Co., Ltd.), 0.4 mM each of dATP, dCTP, dGTP and dTTP, 2.5 U of LA-Taq DNA Polymerase, 100 ng of HT29 cells genomic region, and 20 pmol each of primers ApoE-1 and ApoE-2 (a final volume being 50 μl). Each of the above cationic complex was added to the above reaction mixture so as to have a final concentration of 50, 100, 200, or 500 μM, respectively.
The reaction was carried out in Fast mode by using TaKaRa PCR Thermal Cycler Personal. As regarding the reaction conditions, the reaction in 30 cycles was carried out, wherein one cycle of reaction comprises a process consisting of 98° C., 5 seconds—64° C., 10 seconds—72° C., 40 seconds. On the other hand, as a control, the reaction for one without addition of the cationic complex was carried out in the same manner.
After the termination of the reaction, 5 μl of each of the resulting reaction mixtures was subjected to electrophoresis on 2% agarose gel containing ethidium bromide in an amount of 0.00005%. The gel after the electrophoresis was subjected to ultraviolet irradiation to visualize the band ascribed to the amplified product, whereby an amplified fragment was confirmed.
The effects on the amplified chain length when adding a cationic complex were examined. As the cationic complex, there was used hexaamminecobalt (III) trichloride. […]

[1] = biological target: T1, TaKaRa Taq DNA Polymerase (Thermus aquaticus, UniProt P19821); assay: PCR with TaKaRa Taq DNA Polymerase in the presence of acidic substances; format: biochemical; details: 1 kb fragment; 100 pg λDNA, primers λ1/λ3, 30 cycles 98°C 10 s–68°C 1 min, 50 μl; amount added 1 μg
T1 construct: purchased Takara Shuzo Co., Ltd
T1 sequence (P19821 whole entry, the tested form may be a part): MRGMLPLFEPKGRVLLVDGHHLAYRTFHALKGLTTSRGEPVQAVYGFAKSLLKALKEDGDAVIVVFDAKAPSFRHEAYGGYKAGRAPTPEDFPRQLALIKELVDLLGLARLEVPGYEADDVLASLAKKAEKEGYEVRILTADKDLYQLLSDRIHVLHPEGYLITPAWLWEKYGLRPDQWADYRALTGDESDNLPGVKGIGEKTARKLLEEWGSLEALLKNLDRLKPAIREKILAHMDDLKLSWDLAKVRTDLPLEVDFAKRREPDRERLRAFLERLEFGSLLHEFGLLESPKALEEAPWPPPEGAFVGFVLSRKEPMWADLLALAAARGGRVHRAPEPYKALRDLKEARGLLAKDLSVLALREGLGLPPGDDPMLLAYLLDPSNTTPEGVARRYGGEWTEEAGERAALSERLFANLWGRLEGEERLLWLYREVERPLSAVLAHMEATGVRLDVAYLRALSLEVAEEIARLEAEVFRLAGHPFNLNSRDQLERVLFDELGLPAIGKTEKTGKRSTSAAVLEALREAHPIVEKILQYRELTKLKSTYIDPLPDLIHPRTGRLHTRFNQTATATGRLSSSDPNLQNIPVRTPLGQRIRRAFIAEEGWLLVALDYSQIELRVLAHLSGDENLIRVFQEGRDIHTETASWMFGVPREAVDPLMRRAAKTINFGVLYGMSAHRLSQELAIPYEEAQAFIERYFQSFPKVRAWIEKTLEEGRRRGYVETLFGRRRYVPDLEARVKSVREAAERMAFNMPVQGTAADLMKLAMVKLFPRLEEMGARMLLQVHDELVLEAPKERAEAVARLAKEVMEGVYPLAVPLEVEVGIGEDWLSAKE
Description: Using the sulfated-fucose-containing polysaccharide-F obtained in Example 6 described above or sodium alginate, the effects of these acidic substances imparted on TaKaRa Taq DNA Polymerase (manufactured by Takara Shuzo Co., Ltd.) were examined. In this example, PCR was carried out in normal mode by using TaKaRa PCR Thermal Cycler Personal.
A reaction mixture comprising λDNA as a template, primers λ1 and λ3 as a primer pair, and TaKaRa Taq DNA Polymerase as DNA polymerase was prepared, and PCR was carried out. The composition of the reaction mixture is as follows.
TaKaRa Taq DNA Polymerase buffer, 0.2 mM each of dATP, dCTP, dGTP and dTTP, 1.25 U of TaKaRa Taq DNA Polymerase, 100 pg of λDNA, and 10 pmol each of primers λ1 and λ3 (a final volume being 50 μl). Further, 0.1 ng or 0.25 ng each of the sulfated-fucose-containing polysaccharide-F or 1 μg of sodium alginate was respectively added to the above reaction mixture.
The reaction was carried out in 30 cycles, wherein one cycle of reaction comprises a process consisting of 98° C., 10 seconds—68° C., 1 minute. After the termination of the reaction, 5 μl of the resulting reaction mixture was subjected to electrophoresis on 1% agarose gel containing ethidium bromide in an amount of 0.00005%, whereby an amplified fragment was confirmed.

Compound | DNA synthesis reaction when amplifying GC-rich region (LA-Taq DNA Polymerase) | other results
NCCN.NCCN.NCCN.[Cl-].[Cl-].[Cl-].[Co+3] [[Co(H2NCH2CH2NH2)3]Cl3, tris(ethylenediamine)cobalt (III) chloride] | enhanced as the concentration of added complex was increased | –
N.N.N.N.N.N.[Cl-].[Cl-].[Cl-].[Co+3] [[Co(NH3)6]Cl3, hexaamminecobalt (III) chloride] | – | Amplification of desired long DNA fragment (LA-Taq DNA Polymerase; LA-Taq, 1 ng λDNA, primers λL36/λR485 (48.5 kb), 30 cycles 98°C 10 s–68°C 15 min, 50 μM, only slight without addition): excellently amplified
NCCN.NCCN.NCCN.O.O.O.[Cl][Rh]([Cl])[Cl] [[Rh(H2NCH2CH2NH2)3]Cl3, tris(ethylenediamine)rhodium (III) trichloride•trihydrate] | enhanced as the concentration of added complex was increased as 100 μM, 200 μM and 500 μM | –
sodium alginate | – | Amplification Results [1]: + (Amplification being observed)

Source: patent publication US8367328B2, “Method for synthesizing DNA” (Takara Bio Inc., priority 1998, dated 2013)
